Measured values: publication PMC3865801 (Journal of Medicinal Chemistry, 2013)
Entries after “also recorded” stand apart in the source; their conditions may differ.

What follows are molecules tested against T1, purified recombinant perforin (Mus musculus, UniProt P10820) (assay: cell-based). Details: lysis of Jurkat cells by purified recombinant perforin, 51Cr release, 0.1% BSA; average of at least three determinations.
T1 sequence (P10820 21-554): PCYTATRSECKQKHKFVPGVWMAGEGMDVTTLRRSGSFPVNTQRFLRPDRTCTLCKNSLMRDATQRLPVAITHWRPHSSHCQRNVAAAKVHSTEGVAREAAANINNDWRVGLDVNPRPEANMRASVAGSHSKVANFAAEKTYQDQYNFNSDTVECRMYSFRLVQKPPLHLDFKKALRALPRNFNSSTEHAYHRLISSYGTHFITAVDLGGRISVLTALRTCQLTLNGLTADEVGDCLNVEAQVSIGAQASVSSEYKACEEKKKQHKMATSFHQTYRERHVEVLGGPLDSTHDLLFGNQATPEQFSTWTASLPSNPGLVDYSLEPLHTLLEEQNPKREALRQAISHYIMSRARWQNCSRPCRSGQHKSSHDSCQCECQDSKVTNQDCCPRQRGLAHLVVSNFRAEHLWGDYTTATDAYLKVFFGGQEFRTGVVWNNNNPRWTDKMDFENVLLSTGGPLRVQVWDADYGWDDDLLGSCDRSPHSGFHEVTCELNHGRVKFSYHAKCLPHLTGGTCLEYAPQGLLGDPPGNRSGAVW
Type: cell-based
Experimental: The ability of the compounds to inhibit the lysis of nucleated (Jurkat T lymphoma) cells in the presence of 0.1% BSA was measured by release of ^51Cr label. Jurkat target cells were labeled by incubation in medium with 100 μCi ^51Cr for 1 h. The cells were then washed three times to remove unincorporated isotope and resuspended at 1 × 10^5 cells per milliliter in RPMI buffer supplemented with 0.1% BSA. […] Each data point was performed in triplicate, and an IC50 was calculated from the range of concentrations described above.
With `O=C1NC(=S)N/C1=C/c1ccc(-c2ccccc2)s1` [compound 43] the “inhibition of Jurkat cell lysis, IC50” value was “no detectable activity”. In the case of `O=C1NC(=S)N/C1=C/c1ccc(-c2ccc3c(c2)CN(CCN2CCOCC2)C3=O)s1` [compound 130, (E,Z)-2-(2-Morpholinoethyl)-5-(5-((5-oxo-2-thioxoimidazolidin-4-ylidene)methyl)thiophen-2-yl)isoindolin-1-one], the “inhibition of Jurkat cell lysis, IC50” value is reported as “not reproducible; also recorded: variable”.

Same assay, conditions: lysis of Jurkat cells by purified recombinant perforin, 51Cr release, 0.1% BSA; average of at least three determinations; read-out: inhibition of Jurkat cell lysis, IC50
For `O=C1NC(=S)N/C1=C/c1ccc(-c2ccccc2)s1` [compound 43], the IC50 was over 20 µM. Work on `O=C1NC(=S)N/C1=C/c1ccc(-c2ccccc2Cl)s1` [compound 44] yielded an IC50 of over 20 µM. `O=C1NC(=S)N/C1=C/c1ccc(-c2cccc(Cl)c2)s1` [compound 45] showed an IC50 of 7.19 µM. Molecule `O=C1NC(=S)N/C1=C/c1ccc(-c2ccc(Cl)cc2)s1` [compound 46] has an IC50 of 5.22 µM. With `O=C1NC(=S)N/C1=C/c1ccc(-c2cccc(F)c2)s1` [compound 47] the IC50 was 10.8 µM. For `O=C1NC(=S)N/C1=C/c1ccc(-c2ccc(F)cc2)s1` [compound 48], the IC50 was 6.69 µM. Molecule `O=C1NC(=S)N/C1=C/c1ccc(-c2ccc(F)c(F)c2)s1` [compound 49] has an IC50 of 4.59 µM. With `O=C1NC(=S)N/C1=C/c1ccc(-c2cccc(C(F)(F)F)c2)s1` [compound 50] the IC50 was 5.66 µM. `O=C1NC(=S)N/C1=C/c1ccc(-c2ccc(C(F)(F)F)cc2)s1` [compound 51] was tested, and the IC50 was 4.66 µM. Work on `N#Cc1cccc(-c2ccc(/C=C3/NC(=S)NC3=O)s2)c1` [compound 52] yielded an IC50 of 9.68 µM. `O=C1NC(=S)N/C1=C/c1ccc(-c2ccc(O)cc2)s1` [compound 53] was tested, and the IC50 was 7.72 µM. `O=C1NC(=S)N/C1=C/c1ccc(-c2ccc(Cl)c(C(F)(F)F)c2)s1` [compound 54] gave an IC50 of 3.09 µM. `O=C1NC(=S)N/C1=C/c1ccc(-c2ccc(Br)cc2)s1` [compound 55] showed an IC50 of 1.69 µM. In the case of `CSc1ccc(-c2ccc(/C=C3/NC(=S)NC3=O)s2)cc1` [compound 56], the IC50 is reported as 1.15 µM. In the case of `CC(=O)c1ccc(-c2ccc(/C=C3/NC(=S)NC3=O)s2)cc1` [compound 57], the IC50 is reported as 1.67 µM. Molecule `CC(=O)OCc1ccc(-c2ccc(/C=C3/NC(=S)NC3=O)s2)cc1` [compound 58, (E,Z)-4-(5-((5-Oxo-2-thioxoimidazolidin-4-ylidene)methyl)thiophen-2-yl)benzyl Acetate] has an IC50 of 3.04 µM. Molecule `COC(=O)c1ccc(-c2ccc(/C=C3/NC(=S)NC3=O)s2)cc1` [compound 59] has an IC50 of 1.62 µM. For `NC(=O)c1cccc(-c2ccc(/C=C3/NC(=S)NC3=O)s2)c1` [compound 60], the IC50 was 0.79 µM. With `NC(=O)c1ccc(-c2ccc(/C=C3/NC(=S)NC3=O)s2)cc1` [compound 61] the IC50 was 1.56 µM. `COC(=O)c1ccc(-c2ccc(/C=C3/NC(=S)NC3=O)s2)cc1C` [compound 62] showed an IC50 of 3.03 µM. Molecule `CS(=O)(=O)c1ccc(-c2ccc(/C=C3/NC(=S)NC3=O)s2)cc1` [compound 63] has an IC50 of 13.8 µM. Work on `CS(=O)(=O)Nc1ccc(-c2ccc(/C=C3/NC(=S)NC3=O)s2)cc1` [compound 64] yielded an IC50 of 7.7 µM. With `O=C1NC(=S)N/C1=C/c1ccc(-c2cccnc2)s1` [compound 65] the IC50 was 12.9 µM. In the case of `O=C1NC(=S)N/C1=C/c1ccc(-c2ccncc2)s1` [compound 66], the IC50 is reported as 10.1 µM. Molecule `CNC(=O)c1ccc(-c2ccc(/C=C3/NC(=S)NC3=O)s2)cc1` [compound 67, (E,Z)-N-Methyl-4-(5-((5-oxo-2-thioxoimidazolidin-4-ylidene)methyl)thiophen-2-yl)benzamide] has an IC50 of 4.53 µM. Molecule `CN(C)C(=O)c1ccc(-c2ccc(/C=C3/NC(=S)NC3=O)s2)cc1` [compound 68] has an IC50 of 6.93 µM. For `O=C1NC(=S)N/C1=C/c1ccc(-c2ccc(C(=O)N3CCOCC3)cc2)s1` [compound 69], the IC50 was over 20 µM. `O=C1NC(=S)N/C1=C/c1ccc(-c2ccc(C(=O)NCCN3CCOCC3)cc2)s1` [compound 70] showed an IC50 of over 20 µM. In the case of `O=C1NC(=S)N/C1=C/c1ccc(-c2ccc(C(=O)NCCCN3CCOCC3)cc2)s1` [compound 71], the IC50 is reported as 8.13 µM. In the case of `O=C1NC(=S)N/C1=C/c1ccc(-c2ccc(C(=O)NCCO)cc2)s1` [compound 72], the IC50 is reported as 3.64 µM. `O=C1NC(=S)N/C1=C/c1ccc(-c2ccc(C(=O)NCCCO)cc2)s1` [compound 73] showed an IC50 of 4.35 µM. `CC(O)CNC(=O)c1ccc(-c2ccc(/C=C3/NC(=S)NC3=O)s2)cc1` (centres unmarked) [compound 74] was tested, and the IC50 was 6.5 µM. Work on `O=C1NC(=S)N/C1=C/c1ccc(-c2ccc(C(=O)NCC(O)CO)cc2)s1` (centres unmarked) [compound 75] yielded an IC50 of 2.44 µM. `CCN1Cc2cc(-c3ccc(/C=C4/NC(=S)NC4=O)s3)ccc2C1=O` [compound 120] showed an IC50 of 0.6 µM. `CCCN1Cc2cc(-c3ccc(/C=C4/NC(=S)NC4=O)s3)ccc2C1=O` [compound 121] showed an IC50 of 1.52 µM. For `CCCCN1Cc2cc(-c3ccc(/C=C4/NC(=S)NC4=O)s3)ccc2C1=O` [compound 122], the IC50 was 1.18 µM. In the case of `CC(C)N1Cc2cc(-c3ccc(/C=C4/NC(=S)NC4=O)s3)ccc2C1=O` [compound 123], the IC50 is reported as 4.42 µM. For `CC(=O)OCCN1Cc2cc(-c3ccc(/C=C4/NC(=S)NC4=O)s3)ccc2C1=O` [compound 124, (E,Z)-2-(1-Oxo-5-(5-((5-oxo-2-thioxoimidazolidin-4-ylidene)methyl)thiophen-2-yl)isoindolin-2-yl)ethyl Acetate], the IC50 was 1.17 µM. With `O=C1NC(=S)N/C1=C/c1ccc(-c2ccc3c(c2)CN(CC(O)CO)C3=O)s1` (centres unmarked) [compound 127] the IC50 was 1.26 µM. Work on `CC(=O)N1Cc2cc(-c3ccc(/C=C4/NC(=S)NC4=O)s3)ccc2C1=O` [compound 128] yielded an IC50 of 0.93 µM. `CN(C)CCCN1Cc2cc(-c3ccc(/C=C4/NC(=S)NC4=O)s3)ccc2C1=O` [compound 131, (E,Z)-2-(3-(Dimethylamino)propyl)-5-(5-((5-oxo-2-thioxoimidazolidin-4-ylidene)methyl)thiophen-2-yl)isoindolin-1-one] was tested, and the IC50 was over 20 µM. With `O=C1NC(=S)N/C1=C/c1ccc(-c2ccc3c(c2)CN(CCCN2CCCCC2)C3=O)s1` [compound 132] the IC50 was 11.8 µM. Molecule `CN1CCN(CCCN2Cc3cc(-c4ccc(/C=C5/NC(=S)NC5=O)s4)ccc3C2=O)CC1` [compound 133] has an IC50 of over 20 µM. Molecule `O=C1NC(=S)N/C1=C/c1ccc(-c2ccc3c(c2)CN(CCCN2CCCC2)C3=O)s1` [compound 134] has an IC50 of 8.93 µM. Work on `O=C1NC(=S)N/C1=C/c1ccc(-c2ccc3c(c2)C(=O)NC3)s1` [compound 165] yielded an IC50 of 1.38 µM. Work on `CN1Cc2ccc(-c3ccc(/C=C4/NC(=S)NC4=O)s3)cc2C1=O` [compound 166, (E,Z)-2-Methyl-6-(5-((5-oxo-2-thioxoimidazolidin-4-ylidene)methyl)thiophen-2-yl)isoindolin-1-one] yielded an IC50 of 1.89 µM. `CN1CCc2cc(-c3ccc(/C=C4/NC(=S)NC4=O)s3)ccc2C1=O` [compound 169] showed an IC50 of 2.33 µM. With `CN1CCc2ccc(-c3ccc(/C=C4/NC(=S)NC4=O)s3)cc2C1=O` [compound 170] the IC50 was 4.76 µM. `CC(=O)c1cn(C)c2ccc(-c3ccc(/C=C4\NC(=S)NC4=O)s3)cc12` [compound 178] was tested, and the IC50 was 5.3 µM. Work on `O=C1NC(=S)N/C1=C\c1cc(-c2ccc3c(c2)CNC3=O)cs1` [compound 204] yielded an IC50 of 3 µM. For `O=C1NC(=S)N/C1=C/c1ccc(-c2ccc3c(c2)CNC3=O)cc1` [compound 205], the IC50 was 5.55 µM. Work on `O=C1NC(=S)N/C1=C\c1cccc(-c2ccc3c(c2)CNC3=O)c1` [compound 206] yielded an IC50 of 3.44 µM. In the case of `O=C1NC(=S)N/C1=C/c1cc2ccc(-c3ccc4c(c3)CNC4=O)cc2[nH]1` [compound 208], the IC50 is reported as 1.58 µM. `O=C1NC(=S)N/C1=C/c1cc2cc(-c3ccc4c(c3)CNC4=O)ccc2[nH]1` [compound 209] gave an IC50 of 2.5 µM. With `O=C1NC(=S)N/C1=C/c1cc2ccc(-c3ccc4c(c3)CCNC4=O)cc2[nH]1` [compound 210] the IC50 was 1.66 µM. `O=C1NC(=S)N/C1=C/c1cc2cc(-c3ccc4c(c3)CCNC4=O)ccc2[nH]1` [compound 211] gave an IC50 of 1.45 µM. `O=C1NC(=S)/C(=C/c2ccc3cc(-c4ccc5c(c4)CCNC5=O)ccc3n2)N1` [compound 212] was tested, and the IC50 was 2.55 µM.
